Like-named read-outs stand apart in the source and are kept apart here.
What was measured:
[1] = DIP (propofol) formation by hydrolysis at accelerated stability conditions as a function of pH; assay type: physicochemical; settings: for DIP formation: 40° C./75% RH
Description: This example illustrates that the degradation of O-phosphonooxymethyl propofol is pH dependent. In particular, higher pH conditions generally result in lower rates of hydrolysis (degradation) of the prodrug, while lower pH conditions increase the rate of hydrolysis. […]

Water solubility = assay type: physicochemical; settings: degradation products of the prodrug
[2] = background statement; cited from earlier work
[3] = anesthetic induction doses; cited from earlier work
[4] = commercially available formulations; cited from earlier work

Q: For `CC(C)c1cccc(C(C)C)c1OCOP(=O)(O)O` [O-phosphonooxymethyl propofol, O-phosphonooxymethyl-propofol], which DIP formation ([1]; pH 6.9, 1 month) is on record?
A: 1.22 % w/v

Q: And the DIP formation ([1]; pH 6.9, 3 months)?
A: 1.90 % w/v

Q: What about the DIP formation ([1]; pH 6.9, 6 months) of the same molecule?
A: 3.47 % w/v

Q: And the DIP formation ([1]; pH 7.4, 1 month)?
A: 0.83 % w/v

Q: And the DIP formation ([1]; pH 7.4, 3 months)?
A: 0.67 % w/v

Q: What about the DIP formation ([1]; pH 7.4, 6 months) of the same molecule?
A: 2.14 % w/v

Q: And the DIP formation ([1]; pH 8.0, 1 month)?
A: 0.32 % w/v

Q: And the DIP formation ([1]; pH 8.0, 3 months)?
A: 0.76 % w/v

Q: What about the DIP formation ([1]; pH 8.0, 6 months) of the same molecule?
A: 0.72 % w/v

Q: What about the DIP formation ([1]; pH 8.5, 1 month) of the same molecule?
A: 0.15 % w/v

Q: What about the DIP formation ([1]; pH 8.5, 3 months) of the same molecule?
A: 0.41 % w/v

Q: And the DIP formation ([1]; pH 8.5, 6 months)?
A: 0.73 % w/v

Q: What about the DIP formation ([1]; pH 9.1, 3 months) of the same molecule?
A: 0.12 % w/v

Q: What about the DIP formation ([1]; pH 9.1, 6 months) of the same molecule?
A: 0.22 % w/v

Q: What about the DIP formation ([1]; pH 9.9, 6 months) of the same molecule?
A: 0.09 % w/v

Q: What about the Amount of hydrolysis ([1]; pH of about 9-9.5, 40° C., 75% RH) of the same molecule?
A: least amount of hydrolysis

Q: With `Oc1ccc(O)cc1` [hydroquinone] as the molecule, how does the Water solubility (Water solubility) read?
A: poorly water-soluble

Q: Which Water solubility (Water solubility) does the source give for `CC(C)c1cccc(C(C)C)c1O` [propofol] here?
A: poorly water-soluble

Q: And the Water solubility [2]?
A: poorly water soluble

Q: And the “Respiratory consequences, including a reduction in tidal volume and apnea” value [3]?
A: up to 83 % of patients

Q: And the Oral bioavailability [4]?
A: very low

Q: Which Water solubility (Water solubility) does the source give for quinone here?
A: poorly water-soluble

From US20100311698A1, “AQUEOUS BASED PHARMACEUTICAL FORMULATIONS OF WATER-SOLUABLE PRODRUGS OF PROPOFOL” (EISAI C[…] NORTH AMERICA, priority 2006, published 2010)
